# Laboratory results: PubChem BioAssay AID1508612
# Experiment: passive permeability, PAMPA, ADME assay (AID 1508612)
# Details: pH 7.4, 30.0 min, 50.0 µM
row,Papp [×10⁻⁶ cm/s],Structure (SMILES)
1,> 1000,Cc1cnc(-c2ccccc2C(C)C)nc1NCC1CN(c2cccnc2)C1
2,34.1,COC(=O)C1=C(C)NC(C)=C(C(=O)OCCCN2CCC(c3ccccc3)(c3ccccc3)CC2)C1c1cccc([N+](=O)[O-])c1 (stereo not given)
3,> 1000,CC(C)Oc1ccc(-c2csc(N3CCC(C(N)=O)CC3)n2)cc1
4,20.9,O=C(CCc1ccccc1)NC(c1cccs1)c1cc(Cl)c2cccnc2c1O (stereo not given)
5,> 1000,CCOc1ccc(CCNC(=O)c2cc3ccccc3n2C)cc1OCC
6,748,O=C(Nc1nc(-c2ccccc2)cs1)c1ccncc1NS(=O)(=O)c1ccc(F)cc1
7,729,Cc1ccc(S(=O)(=O)Nc2cnccc2C(=O)Nc2nc(-c3cccc(C)c3)cs2)cc1
8,108,COCCNC(=O)c1ccc(Cn2c(=S)[nH]c3cc4c(cc3c2=O)OCO4)cc1
9,> 1000,Cc1ccc(OCCn2c(CCNC(=O)N3CCCCC3)nc3ccccc32)cc1
10,50.8,Cc1ccccc1C(=O)N1CCC(C(=O)N2CCC(N3Cc4ccccc4C3=O)CC2)CC1
11,39.9,CC#CC(=O)N1CCC[C@H]1c1nc(-c2ccc(C(=O)Nc3ccccn3)cc2)c2c(N)nccn12
12,775,CCN1C(=O)c2ccccc2S(=O)c2ccc(C(=O)NCc3ccccc3)cc21 (stereo not given)
13,71.2,Cc1ccc(S(=O)(=O)Nc2cncc(C(=O)Nc3nc(-c4ccccc4)cs3)c2)cc1
14,> 1000,Cc1ccc(OCCn2c(CCNC(=O)C3CCCCC3)nc3ccccc32)cc1
15,> 1000,Cc1ccc(-c2cc(C(=O)NC3CCCCC3)c3ccccc3n2)cc1
16,197,COC(=O)Nc1nc2ccc(Sc3ccccc3)cc2[nH]1
17,385,COc1ccccc1-n1cnc2cc(C(=O)N3CCCCC3)ccc21
18,537,Cc1ccc(S(=O)(=O)NCc2ccccc2)cc1
19,202,CCNC(=O)N1CCCN(c2ccc(C(=O)NCCc3ccc(Cl)cc3Cl)cc2NC(=O)c2cccc(Cl)c2)CC1
20,68,Cn1c(=O)cc(C(=O)NC2CCCc3c2[nH]c2c(Cl)cccc32)c2ccccc21 (stereo not given)
21,143,CNc1ccc(Br)cc(C(=O)/C=C/c2ccc(OC)cc2OC)c1=O
22,< 1,Oc1ccc(CNc2ccccc2Br)c2cccnc12
23,226,O=C(Cc1cccs1)NCc1nnc2ccc(-c3ccccc3)nn12
24,125,Cc1ccc(S(=O)(=O)Nc2ccccc2C(=O)Nc2ncc(-c3ccccc3)s2)cc1
25,108,CC(=O)c1c(C)[nH]c(C(=O)Nc2ccc(C)c(S(=O)(=O)Nc3ccc(Br)cc3)c2)c1C

row,Papp [×10⁻⁶ cm/s],Structure (SMILES)
1,> 1000,COc1ccc(CNC(=O)c2cnc3ccccc3n2)cc1
2,330,COC(=O)CNC(=O)c1nc(-c2ccc([S+](C)(=O)[O-])cc2)c2ccccn12
3,72.2,Fc1ccc(Nc2nc(-c3ccncc3Cl)nc3ccccc23)cc1F
4,> 1000,CC(C)CNc1ccnc(NCc2csc(-c3ccccc3)n2)n1
5,118,COCc1cc(C)nc(SCC(=O)c2ccc(O)c(O)c2)c1C#N
6,587,Cc1ccnc(NC(=S)N2CCN(c3ccc(C(F)(F)F)cc3)CC2)c1
7,23.9,Cc1ccccc1C(=O)N1CCc2cc(-c3nc(NC(=O)Cc4ccc5c(c4)OCO5)sc3C)ccc21
8,> 1000,Cc1cccc(-n2cnc3cc(C(=O)N4CCCC(C)C4)ccc32)c1 (stereo not given)
9,> 1000,Nc1c(C(=O)N2CCCCC2)sc(=S)n1-c1ccccc1
10,664,Oc1ccc(Nc2nc(-c3ccncc3)nc3ccccc23)cc1F
11,18.4,O=S(=O)(Nc1nccs1)c1ccc(NCc2cccc(Cl)c2O)cc1
12,> 1000,COc1cccc(NC(=O)c2cccc3c(=O)c4c([nH]c23)CCCC4)c1
13,> 1000,Cc1cnc(-c2ccccc2OC(C)C)nc1NCc1ccc(-n2ccnn2)cc1
14,22.9,N#Cc1nc(-c2cccc3ccccc23)oc1NCc1ccccc1
15,317,Cc1ccc(N2CCN(c3cnn(-c4nc5ccccc5s4)c(=O)c3Cl)CC2C)cc1 (stereo not given)
16,16.8,Fc1cc(Nc2nc(-c3ccncc3)nc3ccccc23)ccc1-c1cccc(C(F)(F)F)c1
17,7.71,Cc1ccc(S(=O)(=O)Nc2cc(Br)ccc2C(=O)Nc2nc(-c3ccccc3)cs2)cc1
18,731,COc1ccc(NC(=O)c2ccccc2)cc1S(=O)(=O)Nc1ccc(Br)cc1
19,135,CC1CCC(n2c3cnccc3c3cnc(Nc4ccc5c(n4)CCN(C(=O)CO)C5)nc32)CC1 (stereo not given)
20,> 1000,COc1cccc(CNc2ccc(S(=O)(=O)Nc3ccc(N4CCNCC4)cc3)cc2)c1O
21,> 1000,Cc1ccc(C(=O)Nc2ccc(CN3CCN(C)CC3)c(C(F)(F)F)c2)cc1C#Cc1cnc2cccnn12
22,798,Cc1ccc(-c2cc(C(=O)Nc3ncco3)c3ccccc3n2)cc1C
23,540,Cc1ccc(C(=O)Nc2nc(-c3ccccn3)cs2)cc1S(=O)(=O)N1CCOCC1
24,> 1000,C[C@@H]1CN(CC(=O)N2CC(C)(C)c3ncc(Cc4ccc(F)cc4)cc32)[C@@H](CN2CCOC[C@H]2C)CN1
25,405,CCc1[nH]c2ccc(CNC(=O)Cc3cnc4c(C)cccn34)cc2c1C

row,Papp [×10⁻⁶ cm/s],Structure (SMILES)
1,> 1000,COc1ccc(Nc2cc(C)nc(-n3nc(C)cc3C)n2)cc1Cl
2,468,O=C(Nc1nc(-c2ccccc2)cs1)c1ccncc1NS(=O)(=O)c1ccccc1F
3,657,Cc1cccc(-c2cc(NC(=O)c3ccccc3C)n(-c3ccccc3)n2)c1
4,> 1000,Cc1cc(-c2nnc3n2CCCCC3)c(C)n1-c1cccc2ccccc12
5,> 1000,COc1ccccc1N1CCN(CCN(C(=O)c2ccc(I)cc2)c2ccccn2)CC1
6,> 1000,CC(=O)C1CCN(c2ncc(-c3cccc(N(C)C)c3)s2)CC1
7,615,CCc1ccc(-n2nnc(-c3nsc(NC(=O)c4ccccc4Cl)n3)c2C)cc1
8,> 1000,CCN1CCC(N(Cc2ccc3c(c2)OCO3)C(=O)Nc2cc(Cl)ccc2C(=O)OC)CC1
9,> 1000,CCc1cc(Cl)c(OC)c(C(=O)NC[C@@H]2CCCN2CC)c1O
10,512,CC[S+](=O)([O-])Nc1ccccc1C(=O)Nc1nc(-c2ccccc2)cs1
11,2.6,NC(=O)c1ccc(-c2nc3c([nH]2)CN(C(=O)CN2CCOCC2)CC3)cc1
12,187,CCOC(=O)c1nn(-c2ccc(OC)cc2)c(=O)c2c(N)scc12
13,16.6,CC(C)CC(C)NC(=O)c1noc(-c2ccc[nH]c2=O)n1 (stereo not given)
14,> 1000,COc1ccc(NC(=O)c2ccc[nH]2)cc1S(=O)(=O)Nc1ccc(Br)cc1
15,175,CCN1CCN(C(=O)CCCn2nc(C)c3c(C)n(-c4ccc(C)cc4)nc3c2=O)CC1
16,85.8,CCOC(=O)c1ccc(N2C(=O)c3n[nH]c(-c4cccs4)c3C2c2ccc(Cl)cc2Cl)cc1 (stereo not given)
17,8.62,O=C(O)c1ccc(Nc2nc(-c3cc4ccccc4oc3=O)cs2)cc1O
18,< 1,Cc1ccc2oc3c(c(=O)c2c1)C(c1ccc(O)cc1)N(CCCN(C)C)C3=O (stereo not given)
19,< 1,Cc1cn2c(-c3cn[nH]c3)cnc2c(Nc2ccc(C(=O)N3CCNCC3)cc2F)n1
20,> 1000,CN1C(=O)c2ccccc2[S@](=O)c2ccc(C(=O)NCc3ccc(Cl)cc3)cc21
21,259,Cc1ccc(S(=O)(=O)Nc2cc(C(=O)Nc3nc(-c4ccccc4)cs3)ccn2)cc1
22,165,COC[C@@H]1CN(C(=O)c2nn(C)c3ccccc23)C[C@H]1c1nc(C)no1
23,445,O=C(Nc1nc(-c2ccccc2)cs1)c1ccncc1NS(=O)(=O)c1cccc2cccnc12
24,887,CCc1cccc(NC(=O)C(Cc2ccccc2)NS(=O)(=O)c2cccs2)c1 (stereo not given)
25,< 1,C[C@@H](O)CNC(C)(C)CC(=O)N[C@@H]1CCc2ccccc2N(Cc2ccc(-c3ccccc3-c3nn[nH]n3)cc2)C1=O

row,Papp [×10⁻⁶ cm/s],Structure (SMILES)
1,951,CCOC(=O)CCNc1cc(N2CCc3ccccc3CC2)nc(-c2cccnc2)n1
2,257,COc1cc(-c2csc(N3CCC(C(N)=O)CC3)n2)cc(OC)c1OC
3,26.9,O=C1Nc2ccccc2/C1=C\c1cc(F)c(O)c(F)c1
4,9.34,O=C(CCc1ccccc1)Nc1ccc(S(=O)(=O)Nc2nccs2)cc1
5,1.1,CCOc1ccc(OCC)c(NC(=O)C(NS(=O)(=O)c2ccc(Br)s2)c2ccccc2)c1 (stereo not given)
6,46.6,O=c1c(O)c(-c2ccc(O)cc2)oc2cc(O)cc(O)c12
7,> 1000,COc1cccc(CNCc2cccn2-c2nnc(N3CCN(c4ccccc4)CC3)s2)c1
8,> 1000,CC(=O)N[C@H]1CN(C2CCN(c3ccc(F)cc3C)CC2)C[C@@H]1C1CC1
9,900,COc1ccc(CN2C(=O)[C@@H]3C[C@@H](CN3Cc3cccs3)Oc3ccccc32)cc1
10,144,Cc1ccc2nc(-c3cc(NC(=O)c4ccc5c(c4)OCCO5)ccc3Cl)oc2c1
11,> 1000,CC[C@@H](C)Nc1cc(C(=O)NC2CC3CCC(C2)N3c2ccc(C(=O)C3CC3)cn2)c(C)cc1C(N)=O (stereo not given in full)
12,6.35,O=C(NCc1ccncc1)c1nc(-c2cccnc2)c2cnccn12
13,> 1000,CC(=O)NCc1ccc(-c2csc(Nc3cc(C)cc(C)c3)n2)o1
14,553,N=c1c2c(ccn1CCc1ccccc1)Oc1ccc3ccccc3c1C2c1ccccc1 (stereo not given)
15,49.1,CS(=O)(=O)c1cccc(-c2csc(N3CCC(C(N)=O)CC3)n2)c1
16,< 1,CCCc1oc2ccc(NS(=O)(=O)c3ccc(OC)cc3)cc2c1C(=O)OCC
17,17.6,CNC(=O)C1=C(C)NC(Nc2nc3ccccc3o2)=NC1c1[nH]ncc1Cl (stereo not given)
18,654,COc1ccc(Cn2c(C(=O)O)c(CNCc3ccco3)c3ccc(C)cc32)cc1
19,> 1000,Cc1ccc(-n2ncc3c(NCCCN(C)C)ncnc32)cc1Cl
20,< 1,Cc1cc(N)c2cc(NC(=O)Nc3ccc4nc(C)cc(N)c4c3)ccc2n1
21,210,NC(CO)(CO)CCc1ccc(Sc2cccc(OCc3ccccc3)c2)cc1Cl
22,8.23,O=S(=O)(Nc1nccs1)c1ccc(NCc2cc(F)ccc2O)cc1
23,460,O=C1CCc2cc(S(=O)(=O)Nc3ccc(F)c(Cl)c3)ccc2N1
24,150,c1ccc2c(Nc3nccs3)nc(-c3ccncc3)nc2c1
25,< 1,CC(=O)Nc1ccc(-c2csc(N3CCC(C(N)=O)CC3)n2)cc1

row,Structure (SMILES),Papp [×10⁻⁶ cm/s]
1,Cc1nc(-c2ccco2)cc([C@H]2CN3CC[C@H]2C[C@@H]3CNC(=O)NC2CCCCC2)n1,475
2,COc1cc2c(cc1Oc1cccc(N(C)C)c1)NC(=O)C21CCN(c2cnccn2)CC1,> 1000
3,CN1CCCC1CCOC(c1cc2nccc(C(=O)O)c2[nH]1)c1ccccc1Cl (stereo not given),1.1
4,CCOc1ccc(CCNC(=O)c2cc3ncccc3n2Cc2cccc(C)n2)cc1OCC,491
5,COc1c(O)cc2c(c1OC)-c1ccc(SC)c(=O)cc1C(NC(C)=O)CC2 (stereo not given),19.5
